What was measured:
Experiment in all cases: relative viability (nuclei count vs DMSO), 5 days (fraction); higher = more cells survive
[1] = compound: C1=CC2=C(C=C(C(=C2N=C1)O)N=NC3=CC4=C(C=C3)C=C(C=C4)S(=O)(=O)O)S(=O)(=O)O + Cc1cc(Nc2cc(N3CCN(C)CC3)nc(Sc3ccc(NC(=O)C4CC4)cc3)n2)n[nH]1 [Tozasertib] (partner 0.1 µM)
In short: (§1)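 Cells from lung cancer lines were seeded into 1536-well plates and, one day later, dosed by pin tool. Treatments were either a single drug or a fixed dose of an anchor drug with five library-drug doses (not always all listed) in √10 steps. After 5 days, nuclei were stained in a one-step fixation (final 0.05% Triton X-100, 1% formaldehyde, 1 ug/ml Hoechst) and counted on 4× images, and relative viability is the treated-to-vehicle nuclei ratio, as the median of duplicate plates.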

AT-7519 + Bortezomib = compound: O=C(NC1CCNCC1)c1n[nH]cc1NC(=O)c1c(Cl)cccc1Cl [AT-7519] + CC(C)C[C@H](NC(=O)[C@H](Cc1ccccc1)NC(=O)c1cnccn1)B(O)O [Bortezomib] (partner 0.002 µM)
In short: as §1

AT-7519 + Foretinib = compound: O=C(NC1CCNCC1)c1n[nH]cc1NC(=O)c1c(Cl)cccc1Cl [AT-7519] + COc1cc2c(Oc3ccc(NC(=O)C4(C(=O)Nc5ccc(F)cc5)CC4)cc3F)ccnc2cc1OCCCN1CCOCC1 [Foretinib] (partner 0.25 µM)
In short: as §1

AT-7519 + Linsitinib = compound: O=C(NC1CCNCC1)c1n[nH]cc1NC(=O)c1c(Cl)cccc1Cl [AT-7519] + C[C@]1(O)C[C@@H](c2nc(-c3ccc4ccc(-c5ccccc5)nc4c3)c3c(N)nccn32)C1 [Linsitinib] (partner 1 µM)
In short: as §1

| Cell Line | relative viability ([1]; first compound 0.08 µM) | relative viability ([1]; first compound 0.253 µM) | relative viability ([1]; first compound 0.8 µM) | relative viability ([1]; first compound 2.53 µM) | relative viability ([1]; first compound 8 µM) | relative viability (AT-7519 + Bortezomib; first compound 0.01 µM) | relative viability (AT-7519 + Bortezomib; first compound 0.03162 µM) | relative viability (AT-7519 + Bortezomib; first compound 0.3162 µM) | relative viability (AT-7519 + Bortezomib; first compound 1 µM) | relative viability (AT-7519 + Foretinib; first compound 0.01 µM) | relative viability (AT-7519 + Foretinib; first compound 0.03162 µM) | relative viability (AT-7519 + Foretinib; first compound 0.3162 µM) | relative viability (AT-7519 + Foretinib; first compound 1 µM) | relative viability (AT-7519 + Linsitinib; first compound 0.01 µM) | relative viability (AT-7519 + Linsitinib; first compound 0.03162 µM) | relative viability (AT-7519 + Linsitinib; first compound 0.3162 µM) | relative viability (AT-7519 + Linsitinib; first compound 1 µM) |
| --- | --- | --- | --- | --- | --- | --- | --- | --- | --- | --- | --- | --- | --- | --- | --- | --- | --- |
| NCI-H1915 | 0.471 | 0.445 | 0.463 | 0.436 | 0.437 | 1.07 | 1.06 | 0.546 | 0.944 | 1.07 | 1.1 | 1.07 | 0.807 | 1.08 | 1.05 | 1.11 | 0.909 |
| NCI-H1975 | 0.772 | 0.753 | 0.754 | 0.736 | 0.686 | 0.352 | 0.301 | 0.433 | 0.202 | 0.982 | 0.953 | 0.863 | 0.189 | 0.917 | 0.795 | 0.746 | 0.172 |
| NCI-H1993 | 0.576 | 0.576 | 0.581 | 0.56 | 0.548 | 0.987 | 0.979 | 1.07 | 0.683 | 0.786 | 0.842 | 0.809 | 0.594 | 0.707 | 0.738 | 0.663 | 0.585 |
| NCI-H2009 | 0.766 | 0.756 | 0.741 | 0.842 | 0.562 | 1.08 | 0.908 | 0.96 | 0.704 | 1.33 | 1.18 | 1.27 | 0.686 | 1.24 | 1.24 | 1.15 | 0.676 |
| NCI-H2023 | 0.398 | 0.311 | 0.411 | 0.347 | 0.36 | 1.12 | 0.985 | 0.855 | 0.503 | 0.962 | 0.914 | 1.05 | 0.459 | 0.731 | 0.699 | 0.626 | 0.329 |
| NCI-H2085 | 0.928 | 0.742 | 0.784 | 0.886 | 0.813 | 1.22 | 1.04 | 0.995 | 0.964 | 0.932 | 0.84 | 0.888 | 0.874 | 0.904 | 0.857 | 0.726 | 0.637 |
| NCI-H2087 | 0.237 | 0.258 | 0.238 | 0.237 | 0.267 | 0.82 | 1.05 | 0.811 | 0.51 | 1.14 | 1.09 | 1.07 | 0.295 | 1.07 | 1.1 | 0.78 | 0.141 |
| NCI-H2126 | 0.911 | 0.824 | 0.843 | 0.938 | 0.792 | 1.17 | 1.14 | 1.13 | 1.17 | 1.08 | 1.24 | 0.838 | 1.12 | 0.747 | 0.744 | 0.682 | 0.675 |
| NCI-H2228 | 0.264 | 0.269 | 0.279 | 0.233 | 0.295 | 0.977 | 0.801 | 0.66 | 0.8 | 0.833 | 0.789 | 0.814 | 0.595 | 0.618 | 0.564 | 0.544 | 0.312 |
| NCI-H2347 | 0.59 | 0.57 | 0.52 | 0.741 | 0.573 | 0.916 | 0.873 | 0.952 | 1.27 | 0.738 | 0.902 | 0.8 | 0.819 | 1.08 | 1.01 | 0.919 | 0.793 |
| NCI-H2405 | 0.894 | 0.811 | 0.782 | 0.82 | 0.711 | 0.978 | 1.04 | 1.02 | 0.863 | 1.04 | 1.11 | 1.01 | 0.628 | 1.19 | 0.847 | 0.865 | 0.473 |
| NCI-H3122 | 0.371 | 0.37 | 0.405 | 0.514 | 0.378 | 1.03 | 1.01 | 1.06 | 0.688 | 1.07 | 0.968 | 0.983 | 0.465 | 0.971 | 1.03 | 1.06 | 0.421 |
| PC-3 [JPC-3] | 0.963 | 0.848 | 0.846 | 0.856 | 0.864 | 0.947 | 0.863 | 0.86 | 0.848 | 1.03 | 1.05 | 1.03 | 1.06 | 0.957 | 0.974 | 1.04 | 1.02 |
| PC-14 | 0.607 | 0.574 | 0.55 | 0.646 | 0.594 | 0.807 | 0.71 | 0.861 | 0.618 | 0.889 | 0.856 | 0.928 | 0.915 | 0.927 | 0.873 | 0.909 | 0.848 |
| RERF-LC-KJ | 0.506 | 0.601 | 0.512 | 0.519 | 0.509 | 1.1 | 1.14 | 1.08 | 0.797 | 0.939 | 0.813 | 0.879 | 0.921 | 0.914 | 0.848 | 1.03 | 0.811 |
| SK-LU-1 | 0.32 | 0.286 | 0.303 | 0.331 | 0.336 | 1.08 | 1.14 |  | 1.15 | 0.803 | 0.794 | 0.88 | 0.433 | 1.39 | 1.2 | 0.849 | 0.356 |
| SW 1573 | 0.164 | 0.185 | 0.187 | 0.181 | 0.0943 | 0.981 | 0.842 | 0.884 | 0.428 | 0.797 | 0.918 | 0.722 | 0.543 | 0.762 | 0.664 | 0.739 | 0.398 |
| UMC-11 | 0.187 | 0.193 | 0.212 | 0.205 | 0.179 | 1.03 | 0.667 | 0.427 | 0.359 | 1.1 | 0.934 | 0.838 | 0.457 | 1.17 | 0.89 | 0.767 | 0.344 |

From the supplement of paper PMC10307832
